One data set concerns the target T1, Recombinant human PCNA (Homo sapiens, UniProt P12004).
T1 construct: made in house
The data set is described as follows: Saturation Transfer Difference (STD) NMR, competition with T3. Format: binding. Particulars: 1 μM PCNA, 30 μM T3, 3.2 μM AOH1160. The protocol: Recombinant human PCNA was purified and exchanged to D2O-based phosphate buffered saline (PBS), pH 7.2. […] The reference spectra were acquired under the same condition without PCNA. 5 uM DSS was used as an internal reference to determine the reported ligand concentration in solution. All NMR experiments were carried out at 25° C. on 600 MHz Bruker Avance equipped with 5 mm triple resonance cryogenic probe. STD (Saturation Transfer Difference) NMR spectra were acquired with transients ranging from 2560 to 32000, spectral width 8012 Hz with 24 k data points. The recycle delay was 2.8 s. Selective saturation was composed of 50 gauss shaped pulses at a field strength of 86 Hz, and the duration of each pulse is 50 ms with a 500 μs delay between pulses. The spin lock filter used to suppress protein signal was optimized to 60 ms at field strength of 5 kHz. The frequency for protein saturation was optimized to be 0.9 ppm; the ligand signals were not disturbed with the employed selective saturation condition at this frequency. The reference spectrum was acquired with saturation irradiated at −30 ppm. To eliminate potential artifacts, the saturation and reference experiments were acquired in an interleaved manner, and the finished experiments were separated into two 1D data for analysis. The peak integration was carried out with Bruker Topspin software. […]

For another data set, the system named is 7SM0032. The data set is described as follows: Cell growth, CellTitor-Glo assay, 72 h. It is filed as cell-based, human. Particulars: Homo sapiens; 7SM0032 (non-malignant). The protocol:
The human NB cell lines, SK-N-DZ, SK-N-BE(2)c, SK-N-AS, and LAN-5 obtained from the American Type Culture Collection (Rockville, MD), were cultured in DMEM with 10% fetal bovine serum (FBS), 100 units/ml penicillin, and 100 μg/ml streptomycin in the presence of 5% CO2 at 37° C. Human PBMCs from a healthy donor were purchased from Sanguine BioSciences (Valencia, CA) and grown in RPMI1640 with 10% FBS, 100 units/ml penicillin, 100 μg/ml streptomycin, and 10 ng/ml IL-2 in the presence of 5% CO2 at 37° C. Human embryonic progenitor cell line 7SM0032 was acquired from Millipore (Billerica, MA) and grown in the hEPM-1 Media Kit purchased from the same company. The plasmid pCBASce expresses the rare cutting I-SceI meganuclease. The U20S-derived cell lines, DR-GFP and EJ5-GFP, each contain a stably transfected reporter gene for DSB repair mediated by HR and end joining (EJ), respectively. These cell lines were cultured in DMEM medium with 10% FBS at 37° C. in the presence of 5% CO2.
To measure the effect of the compounds on cell growth, cells were seeded at 3×10^4/ml into a 96-well plate. Once attached, cells were treated with various concentrations of AOH1160 for 72 h. Cell growth was measured by the CellTitor-Glo assay (Promega, Madison, WI) according to the manufacturer's instructions. To measure apoptosis, cells were seeded at 1×10^5/ml onto a chamber slide. Once attached, cells were treated with the 500 nM AOH1160 for 24 h. Cells were fixed and analyzed by a TUNEL assay using the TMR red in situ cell death detection kit (Roche Diagnostics, Indianapolis, IN).

Another data set concerns HL-60. The data set is described as follows: AOH1160 IC50 in additional cancer cell lines (Table 4). It is filed as cell-based. Particulars: Homo sapiens; HL-60, Leukemia. The text has this: (§1) In addition numerous analogs related to AOH1160 were screened in numerous neuroblastoma cell lines for anti-cancer activity (Table 2). AOH1160 was screened for anti-cancer activity in additional cancer cell lines besides neuroblastoma (Table 3).

Another data set concerns HCT-15. Described as above. Format: cell-based. Particulars: Homo sapiens; HCT-15, Colon.
From the text: as §1

The next data set has as its system DU-145. The data set is described as above. It is filed as cell-based. Particulars: Homo sapiens; DU-145, Prostate.
From the text: as §1

Another data set relates to A549. The description is as above. It is filed as cell-based. Particulars: Homo sapiens; A549, Non-Small Cell Lung.
From the text: as §1

A further data set has as its system HCT-116. Described as above. It is filed as cell-based. Particulars: Homo sapiens; HCT-116, Colon.
From the text: as §1

Another data set concerns NCI-H322M. The description is as above. It is filed as cell-based. Particulars: Homo sapiens, Non-Small Cell Lung.
From the text: as §1

The next data set concerns OVCAR-8. The data set is described as above. Format: cell-based. Particulars: Homo sapiens; OVCAR-8, Ovarian.
From the text: as §1

The next data set concerns NCI-H23. The description is as above. It is filed as cell-based. Particulars: Homo sapiens; NCI-H23, Non-Small Cell Lung.
From the text: as §1

The subject of the next data set is NCI-60 panel. The data set is described as follows: NCI-60 panel test, median over the panel. Format: cell-based. Particulars: 60 cancer cell lines, 5-dose study. The protocol: FIG. 7. NCI-60 panel test. The effect of AOH1160 on growth of the NCI-60 panel, which consists of 60 cancer cell lines representing 9 major cancer types, was tested in a 5-dose study. Shown are the Log IC50 values determined for each cell line. […] This study was performed by the National Institute of Cancer.
As observed in FIG. 7, the effect of AOH1160 on growth of the NCI-60 panel, which consists of 60 cancer cell lines representing 9 major cancer types, was tested in a 5-dose study. Shown are the Log IC50 values determined for each cell line.

The target of another data set is human TRβ (Homo sapiens, UniProt P10828). The experiment in a line: Human thyroid hormone receptor beta (TRβ) reporter assay. Format: cell-based. Particulars: TRβ reporter cells, 24 h. From the text: Reporter cells constitutively expressing human TRβ and containing a luciferase reporter gene functionally linked to a TRβ-responsive promoter were purchased from Indigo Biosciences (State College, PA). […] The effect of each compound on TRβ activity was examined by measuring the luciferase reporter gene expression according to the manufacturer's instruction.
Chain of human TRβ (P10828 whole entry): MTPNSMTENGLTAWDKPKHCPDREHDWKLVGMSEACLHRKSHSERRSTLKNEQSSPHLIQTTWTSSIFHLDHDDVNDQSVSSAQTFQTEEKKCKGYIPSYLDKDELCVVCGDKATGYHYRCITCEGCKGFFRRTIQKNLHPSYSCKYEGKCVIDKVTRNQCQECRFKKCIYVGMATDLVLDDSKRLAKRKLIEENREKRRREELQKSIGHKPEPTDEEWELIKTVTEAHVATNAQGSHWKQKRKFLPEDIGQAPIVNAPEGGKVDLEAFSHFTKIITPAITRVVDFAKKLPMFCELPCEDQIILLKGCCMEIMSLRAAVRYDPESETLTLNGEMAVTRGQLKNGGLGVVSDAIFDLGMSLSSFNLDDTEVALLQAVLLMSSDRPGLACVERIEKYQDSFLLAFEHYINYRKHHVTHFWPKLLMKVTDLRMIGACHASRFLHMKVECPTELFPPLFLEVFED
A general note: Reporter assays use an easily measured gene product as a stand-in for the process of interest.

Another data set in a line: Stability in plasma. Format: in vitro ADME. The text has this:
FIGS. 8A-8B. FIG. 8A depicts an illustration of AOH1160 degradation by amide cleavage in mouse plasma. FIG. 8B depicts the stability of AOH1160 in human and animal plasma. […] AOH1160 is stable in the plasma of canine, monkey, and human, as well as in the plasma of ES-1-deficient mice (Es1e/SCID).
AOH1160 was degraded in the plasma collected from a wildtype Balb/c mouse, see FIGS. 8A-8B. […] AOH1160 is stable in the plasma of canine, monkey, and human, as well as in the plasma of ES-1-deficient mice (Es1e/SCID).

The structures appear in SMILES notation. Some results are limits rather than exact numbers.

T1 sequence (P12004 whole entry): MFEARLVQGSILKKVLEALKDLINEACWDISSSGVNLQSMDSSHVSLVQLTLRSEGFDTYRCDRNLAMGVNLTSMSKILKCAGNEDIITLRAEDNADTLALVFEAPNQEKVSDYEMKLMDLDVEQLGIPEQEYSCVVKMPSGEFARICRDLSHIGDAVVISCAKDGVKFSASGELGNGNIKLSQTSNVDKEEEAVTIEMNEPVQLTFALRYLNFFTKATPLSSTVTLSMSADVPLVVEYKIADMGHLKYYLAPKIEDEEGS

Regarding `O=C(CNC(=O)c1cccc2ccccc12)Nc1ccccc1Oc1ccccc1` [AOH1160], the “competition with T3 for binding to PCNA” value on Recombinant human PCNA was “competes with T3 for binding to PCNA”. In addition, the IC50 – broadly, the concentration that gives 50% inhibition – is more than 20000 nM with 7SM0032; 128 nM in the data set with HL-60; 133 nM with HCT-15; 200 nM with DU-145; 173 nM in the data set on A549; 102 nM in the data set on HCT-116. The IC50 with NCI-H322M was 157 nM; in the data set on OVCAR-8, 204 nM; with NCI-H23, 194 nM; with NCI-60 panel, approximately 320 nM. Moreover, the “thyroid hormone activity in a TR reporter assay” value at human TRβ is “did not show any thyroid hormone activity”. The stability in plasma result is on record as “stable” in the data set “Stability in plasma” (canine plasma); “stable” in “Stability in plasma” (human plasma); “stable” in “Stability in plasma” (monkey plasma); “stable” in “Stability in plasma” (plasma of ES-1-deficient mice (Es1e/SCID)); “quickly degraded” in “Stability in plasma” (wildtype Balb/c mouse plasma).

(Values after patent US12054447B2, “PCNA inhibitors” (City of Hope, priority 2015, dated 2024).)
